Consider eleven compounds from ChEMBL document CHEMBL1155346, “Synthesis, photochemical E (trans)-->Z (cis) isomerization and antimicrobial activity of 2-chloro-5-methylpyridine-3-olefin derivatives” (2009).

Converted amounts (≈) assume the structure as drawn.

Common to all, as to assay type: functional
One experiment has as its system Staphylococcus aureus. Description: Antibacterial activity against Staphylococcus aureus MTCC 11 by broth dilution method. On the technique in general: Broth dilution looks for growth in wells or tubes with falling amounts of substance.
The subject of a further experiment is Escherichia coli. In words: Antibacterial activity against Escherichia coli by broth dilution method.
In experiment [1] the test system is Rhizopus arrhizus. Description: Antifungal activity against Rhizopus oryzae at 150 ug. The note with it: read-out: DIZ.
Experiment [2] concerns Candida albicans. In words: Antifungal activity against Candida albicans at 100 ug. The note with it: read-out: DIZ.
The subject of experiment [3] is Aspergillus niger. In words: Antifungal activity against Aspergillus niger at 150 ug. As to conditions: read-out: DIZ.
Experiment [4] concerns Aspergillus niger. In words: Antifungal activity against Aspergillus niger at 100 ug. The note with it: read-out: DIZ.
The test system of another experiment is Bacillus subtilis. In words: Antibacterial activity against Bacillus subtilis MTCC 441 by broth dilution method.
The subject of the next experiment is Pseudomonas aeruginosa. In words: Antibacterial activity against Pseudomonas aeruginosa MTCC 741 by broth dilution method.
Experiment [5] has as its system Candida albicans. Description: Antifungal activity against Candida albicans at 150 ug. As to conditions: read-out: DIZ.
Experiment [6] has as its system Rhizopus arrhizus. In words: Antifungal activity against Rhizopus oryzae at 100 ug. As to conditions: read-out: DIZ.
Experiment [7] relates to Saccharomyces cerevisiae. Description: Antifungal activity against Saccharomyces cerevisiae at 100 ug. As to conditions: read-out: DIZ.
Experiment [8] relates to Saccharomyces cerevisiae. Description: Antifungal activity against Saccharomyces cerevisiae at 150 ug. As to conditions: read-out: DIZ.

As usually defined, the MIC is the smallest concentration in the dilution series that meets the test's criterion for growth inhibition. Low readings indicate inhibition by little substance, high ones a need for much substance. On to `COC(=O)/C=C/c1cc(C)cnc1Cl`, for which the MIC in the experiment on Staphylococcus aureus amounted to 75 µg/mL (≈ 354 µM); in the experiment on Escherichia coli it was 37.5 µg/mL (≈ 177 µM); against Bacillus subtilis, 37.5 µg/mL (≈ 177 µM); with Pseudomonas aeruginosa it was 75 µg/mL (≈ 354 µM). For the same compound, the figures for the zone of inhibition at 150 µg/disc with Rhizopus arrhizus [1], with Aspergillus niger [3] and in the experiment on Candida albicans [5] were 11 mm, 17 mm and 11 mm, respectively. The zone of inhibition at 100 µg/disc in the experiment on Candida albicans [2] was determined as 8 mm; in the experiment on Aspergillus niger [4], 16 mm; with Rhizopus arrhizus [6], 10 mm.
Turning to `CC(=O)/C=C/c1cc(C)cnc1Cl`, the MIC turned out to be 37.5 µg/mL (≈ 192 µM) against Staphylococcus aureus, 75 µg/mL (≈ 383 µM) in the experiment with Escherichia coli, 37.5 µg/mL (≈ 192 µM) against Bacillus subtilis and 75 µg/mL (≈ 383 µM) against Pseudomonas aeruginosa. The zone of inhibition at 150 µg/disc with Rhizopus arrhizus [1] is 13 mm; in the experiment with Aspergillus niger [3], 14 mm; in the experiment with Candida albicans [5] it was 17 mm. The zone of inhibition at 100 µg/disc in the experiment on Candida albicans [2] was 13 mm; with Aspergillus niger [4], 13 mm; with Rhizopus arrhizus [6] it was 12 mm.
`CN[C@@H]1[C@H](O[C@H]2[C@H](O[C@H]3[C@H](O)[C@@H](O)[C@H](N=C(N)N)[C@@H](O)[C@@H]3N=C(N)N)O[C@@H](C)[C@]2(O)C=O)O[C@@H](CO)[C@H](O)[C@H]1O` [STREPTOMYCIN]: the MIC was 6.25 µg/mL (≈ 10.7 µM) against Staphylococcus aureus, 1.56 µg/mL (≈ 2.69 µM) with Escherichia coli, 6.25 µg/mL (≈ 10.7 µM) against Bacillus subtilis and 3.12 µg/mL (≈ 5.37 µM) in the experiment on Pseudomonas aeruginosa.
With `Cc1cnc(Cl)c(/C=C\C#N)c1`, the MIC in the experiment with Staphylococcus aureus turned out to be 75 µg/mL (≈ 420 µM); against Escherichia coli, 37.5 µg/mL (≈ 210 µM); against Bacillus subtilis, 37.5 µg/mL (≈ 210 µM); against Pseudomonas aeruginosa it was 75 µg/mL (≈ 420 µM). In addition, the values for the zone of inhibition at 150 µg/disc in the experiment on Rhizopus arrhizus [1], in the experiment with Aspergillus niger [3] and in the experiment with Candida albicans [5] were 10 mm, 12 mm and 10 mm, respectively. In addition, the zone of inhibition at 100 µg/disc with Aspergillus niger [4] and in the experiment with Rhizopus arrhizus [6] was 9 mm in each case.
As for `Cc1cnc(Cl)c(/C=C\CO)c1`, the zone of inhibition at 100 µg/disc in the experiment on Saccharomyces cerevisiae [7] amounted to 11 mm; with Candida albicans [2], 11 mm; in the experiment with Aspergillus niger [4], 12 mm; in the experiment on Rhizopus arrhizus [6], 14 mm. In addition, the MIC in the experiment on Staphylococcus aureus amounted to 37.5 µg/mL (≈ 204 µM); in the experiment on Escherichia coli, 75 µg/mL (≈ 408 µM); with Bacillus subtilis, 37.5 µg/mL (≈ 204 µM); against Pseudomonas aeruginosa, 75 µg/mL (≈ 408 µM). Further, the zone of inhibition at 150 µg/disc in the experiment on Saccharomyces cerevisiae [8] came to 13 mm; in the experiment on Rhizopus arrhizus [1], 17 mm; in the experiment with Aspergillus niger [3], 16 mm; in the experiment with Candida albicans [5] it was 14 mm.
Turning to `CC1(C)S[C@@H]2[C@H](NC(=O)Cc3ccccc3)C(=O)N2[C@H]1C(=O)O` [PENICILLIN G], the MIC came to 1.56 µg/mL (≈ 4.67 µM) in the experiment with Staphylococcus aureus, 12.5 µg/mL (≈ 37.4 µM) against Escherichia coli, 1.56 µg/mL (≈ 4.67 µM) against Bacillus subtilis and 12.5 µg/mL (≈ 37.4 µM) in the experiment on Pseudomonas aeruginosa.
On to `C[C@@H]1[C@H](O)[C@@H](C)/C=C/C=C/C=C/C=C/C=C/C=C/C=C/[C@H](O[C@@H]2O[C@H](C)[C@@H](O)[C@H](N)[C@@H]2O)C[C@@H]2O[C@](O)(C[C@@H](O)C[C@@H](O)[C@H](O)CC[C@@H](O)C[C@@H](O)CC(=O)O[C@H]1C)C[C@H](O)[C@H]2C(=O)O` [AMPHOTERICIN B], for which the zone of inhibition at 100 µg/disc worked out at 22 mm in the experiment with Saccharomyces cerevisiae [7], 23.5 mm in the experiment with Candida albicans [2], 26 mm in the experiment on Aspergillus niger [4] and 23 mm with Rhizopus arrhizus [6].
Turning to `CC(=O)/C=C\c1cc(C)cnc1Cl`, the MIC against Staphylococcus aureus is 75 µg/mL (≈ 383 µM); against Escherichia coli, 37.5 µg/mL (≈ 192 µM); in the experiment with Bacillus subtilis, 37.5 µg/mL (≈ 192 µM); in the experiment on Pseudomonas aeruginosa, 37.5 µg/mL (≈ 192 µM). For the same compound, the zone of inhibition at 150 µg/disc in the experiment with Rhizopus arrhizus [1] came out at 13 mm; with Aspergillus niger [3], 16 mm; in the experiment with Candida albicans [5], 11 mm. In addition, the values for the zone of inhibition at 100 µg/disc in the experiment on Candida albicans [2], with Aspergillus niger [4] and with Rhizopus arrhizus [6] were 9 mm, 14 mm and 11 mm, respectively.
As for `Cc1cnc(Cl)c(/C=C/C#N)c1`, the MIC against Staphylococcus aureus, with Escherichia coli, with Bacillus subtilis and in the experiment with Pseudomonas aeruginosa was 75 µg/mL (≈ 420 µM) in each case. The results for the zone of inhibition at 150 µg/disc in the experiment on Rhizopus arrhizus [1], with Aspergillus niger [3] and in the experiment on Candida albicans [5] were 12 mm, 15 mm and 12 mm, respectively. The figures for the zone of inhibition at 100 µg/disc in the experiment with Candida albicans [2], in the experiment with Aspergillus niger [4] and in the experiment with Rhizopus arrhizus [6] were 10 mm, 13 mm and 10 mm, respectively.
`COC(=O)/C=C\c1cc(C)cnc1Cl`: the MIC worked out at 8.12 µg/mL (≈ 38.4 µM) in the experiment with Staphylococcus aureus, 37.5 µg/mL (≈ 177 µM) with Escherichia coli, 37.5 µg/mL (≈ 177 µM) with Bacillus subtilis and 37.5 µg/mL (≈ 177 µM) against Pseudomonas aeruginosa. For the same compound, the zone of inhibition at 150 µg/disc is 11 mm in the experiment with Rhizopus arrhizus [1], 17 mm with Aspergillus niger [3] and 13 mm in the experiment with Candida albicans [5]. Besides, the zone of inhibition at 100 µg/disc is 11 mm in the experiment on Candida albicans [2], 14 mm with Aspergillus niger [4] and 10 mm in the experiment with Rhizopus arrhizus [6].
For the compound `Cc1cnc(Cl)c(/C=C/CO)c1`, the zone of inhibition at 100 µg/disc with Saccharomyces cerevisiae [7] was determined as 12 mm; in the experiment with Candida albicans [2], 13 mm; in the experiment on Aspergillus niger [4], 14 mm; with Rhizopus arrhizus [6], 16 mm. Besides, the MIC was 75 µg/mL (≈ 408 µM) against Staphylococcus aureus, 37.5 µg/mL (≈ 204 µM) against Escherichia coli, 37.5 µg/mL (≈ 204 µM) against Bacillus subtilis and 37.5 µg/mL (≈ 204 µM) in the experiment on Pseudomonas aeruginosa. Besides, the zone of inhibition at 150 µg/disc was 14 mm in the experiment with Saccharomyces cerevisiae [8], 18 mm in the experiment with Rhizopus arrhizus [1], 17 mm with Aspergillus niger [3] and 15 mm with Candida albicans [5].
